Measurements reported in ChEMBL document CHEMBL1147389, “Two bioactive pterocarpans from Erythrina burana” (J Nat Prod, 1993).

Assays:
[1] = test system: Saccharomyces cerevisiae; assay: DNA damaging activity against RS322 YK rad52 DNA repair gene deficient Saccharomyces cerevisiae mutant assessed as drug level required to produce 12 mm zone of inhibition after 48 hrs; type: functional
[2] = test system: CHO; assay: Cytotoxicity against CHO cells; type: cell-based; details: Cricetulus griseus
[3] = test system: Saccharomyces cerevisiae; assay: DNA damaging activity against RS321 […] DNA repair gene deficient Saccharomyces cerevisiae mutant assessed as drug level required to produce 12 mm zone of inhibition after 48 hrs; type: functional
[4] = test system: P388; assay: Cytotoxicity against mouse P388 cells; type: functional, cell-based
[5] = test system: CHO; assay: Cytotoxicity against p-glycoprotein overexpressing CHO cells; type: cell-based; details: Cricetulus griseus
[6] = test system: Saccharomyces cerevisiae; assay: DNA damaging activity against RS167 N rad6 DNA repair gene deficient Saccharomyces cerevisiae mutant assessed as drug level required to produce 12 mm zone of inhibition after 48 hrs; type: functional
[7] = test system: Saccharomyces cerevisiae; assay: DNA damaging activity against RS188N rad DNA repair gene expressing Saccharomyces cerevisiae assessed as drug level required to produce 12 mm zone of inhibition after 48 hrs; type: functional

Row | Compound | IC12 [1] [µg/mL] | IC50 [2] [µM] | IC12 [3] [µg/mL] | IC50 [4] [µM] | IC50 [5] [µM] | IC12 [6] [µg/mL] | IC12 [7] [µg/mL]
1 | CC(C)=CCc1c(O)ccc2c1O[C@H]1c3ccc(O)cc3OC[C@@H]21 [PHASEOLLIDIN] | 500 | 4 | 400 | > 10 | 7.6 | > 1000 | 5500
2 | COc1ccc2c(c1CC=C(C)C)O[C@H]1c3ccc(O)cc3OC[C@@]21O [ERYTHRABYSSIN I] | 80 | > 20 | 108 | > 10 | 4 | 540 | 330
